Assay: Critical micelle concentration and surface tension by Wilhelmy plate method
Format: physicochemical
Conditions: comparison of Surfactant 9 and Comparative Surfactant
Source text: As surfactant concentration increases, surface tension decreases. Once the surface is completely overlaid with surfactant molecules, micelles begin to form. This point represents the CMC, as well as the minimum surface tension. Further addition of surfactant will not further affect the surface tension. CMC may therefore be measured by observing the change in surface tension as a function of surfactant concentration. One such method for measuring this value is the Wilhemy plate method. A Wilhelmy plate is usually a thin iridium-platinum plate attached to a balance by a wire and placed perpendicularly to the air-liquid interface. The balance is used to measure the force exerted on the plate by wetting. This value is then used to calculate the surface tension (Y) according to Equation 1: […]
Nuclear magnetic resonance (NMR) spectroscopy was performed on a Bruker 500 MHz spectrometer. The critical micelle concentration (CMC) was determined by the Wilhelmy plate method at 23° C. with a tensiometer (DCAT 11, DataPhysics Instruments GmbH) equipped with a Pt—Ir plate. Dynamic surface tension was determined with a bubble pressure tensiometer (Krüss BP100, Krüss GmbH), at 23° C. Contact angle was determined with the optical contact angle goniometer (OCA 15 Pro, DataPhysics GmbH) equipped with a digital camera.

| Structure (SMILES) | surfactant properties (activity in words) |
| --- | --- |
| C[N+](C)(CCCCCC(=O)O)CCCCCC(=O)NCCC[Si](O[Si](C)(C)C)(O[Si](C)(C)C)O[Si](C)(C)C [Surfactant 9, N-(5-carboxypentyl)-6-((3-(1,1,1,5,5,5-hexamethyl-3-((trimethylsilyl)oxy)trisiloxan-3-yl)propyl)amino)-N,N-dimethyl-6-oxohexan-1-aminium bromide] | excellent activity |
| C[N+](C)(CCCCCC(=O)NCCC[Si](O[Si](C)(C)C)(O[Si](C)(C)C)O[Si](C)(C)C)CC(=O)O [Comparative Surfactant, N-(carboxymethyl)-6-((3-(1,1,1,5,5,5-hexamethyl-3-((trimethylsilyl)oxy)trisiloxan-3-yl)propyl)amino)-N,N-dimethyl-6-oxohexan-1-aminium bromide] | inferior surfactant properties |
